PubChem BioAssay AID1259411 (Chemical Carcinogenesis Research Information System (CCRIS), 2018)
Active and inactive are the calls of the source. The rule behind the calls is not given here.

Tested on: rodent carcinogenicity bioassays, tumor incidence
Assay: CCRIS carcinogenicity studies
Summary of the method: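 Archive of carcinogenicity, mutagenicity, tumor promotion and tumor inhibition results drawn from journals, NCI reports and other sources, expert-reviewed; covers 1985-2011 and is no longer updated.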

SMILES: CCCOC(=O)c1cc(O)c(O)c(O)c1
- carcinogen call (Species: MOUSE, Strain/Sex: B6C3F1/FEMALE, Route: ORAL, Dose: 0, 6000, 12000 PPM IN DIET FOR 103 WK (STUDY DURATION: 103 WK), Dose: 0, 6000, 12000 PPM IN DIET FOR 103 WK (STUDY DURATION: 103 WK)): inactive; negative
- carcinogen call (Species: MOUSE, Strain/Sex: B6C3F1/MALE, Route: ORAL, Dose: 0, 6000, 12000 PPM IN DIET FOR 103 WK (STUDY DURATION: 103 WK), Dose: 0, 6000, 12000 PPM IN DIET FOR 103 WK (STUDY DURATION: 103 WK), Tumor Site: Type of Lesion: HEMATOPOIETIC SYSTEM: MALIGNANT LYMPHOMA): equivocal
- carcinogen call (Species: RAT, Strain/Sex: F344/FEMALE, Route: ORAL, Dose: 0, 6000, 12000 PPM IN DIET FOR 103 WK (STUDY DURATION: 103 WK), Dose: 0, 6000, 12000 PPM IN DIET FOR 103 WK (STUDY DURATION: 103 WK)): inactive; negative
- carcinogen call (Species: RAT, Strain/Sex: F344/MALE, Route: ORAL, Dose: 0, 6000, 12000 PPM IN DIET FOR 103 WK (STUDY DURATION: 103 WK), Dose: 0, 6000, 12000 PPM IN DIET FOR 103 WK (STUDY DURATION: 103 WK), Tumor Site: Type of Lesion: PREPUTIAL GLAND: CARCINOMA OR ADENOMA OR ADENOCARCINOMA, PANCREAS: ISLET CELL ADENOMA OR CARCINOMA, ADRENAL GLAND: PHEOC, Tumor Site: Type of Lesion: PREPUTIAL GLAND: CARCINOMA OR ADENOMA OR ADENOCARCINOMA, PANCREAS: ISLET CELL ADENOMA OR CARCINOMA, ADRENAL GLAND: PHEOC): equivocal

SMILES: COC(=O)c1cc(Oc2ccc(Cl)cc2Cl)ccc1[N+](=O)[O-]
- carcinogen call (Species: Mouse, Strain/Sex: B6C3F1/Female (60/sex/group), Route: Oral, Dose: 0, 50, 200, 1000 ppm in feed for 24 mo, Dose: 0, 50, 200, 1000 ppm in feed for 24 mo): inactive; negative; purity 98.3%
- carcinogen call (Species: Mouse, Strain/Sex: B6C3F1/Male (60/sex/group), Route: Oral, Dose: 0, 50, 200, 1000 ppm in feed for 24 mo, Dose: 0, 50, 200, 1000 ppm in feed for 24 mo, Tumor Site: Type of Lesion: Liver: Significant increase in hepatic adenomas and carcinomas at highest dose): active; positive; purity 98.3%
- carcinogen call (Species: Rat, Strain/Sex: Sprague-Dawley/Female (50/sex/group), Route: Oral, Dose: 0, 500, 1580, 5000 ppm in feed for 104 wk, Dose: 0, 500, 1580, 5000 ppm in feed for 104 wk): inactive; negative; purity 98%
- carcinogen call (Species: Rat, Strain/Sex: Sprague-Dawley/Male (50/sex/group), Route: Oral, Dose: 0, 500, 1580, 5000 ppm in feed for 104 wk, Dose: 0, 500, 1580, 5000 ppm in feed for 104 wk): inactive; negative; purity 98%

SMILES: C1CN1c1nc(N2CC2)nc(N2CC2)n1
- carcinogen call (Species: MOUSE, Route: INTRAPERITONEAL, Tumor Site: Type of Lesion: OVARIES, LUNG, THYMUS GLAND, Tumor Site: Type of Lesion: OVARIES, LUNG, THYMUS GLAND): active; positive

SMILES: COc1c(Cl)c(Cl)c([N+](=O)[O-])c(Cl)c1Cl
- carcinogen call (Species: MOUSE, Strain/Sex: B6C3F1/FEMALE, Route: ORAL, Dose: 0, 0.006, 0.012% OF DIET, Dose: 0, 0.006, 0.012% OF DIET): inactive; negative
- carcinogen call (Species: MOUSE, Strain/Sex: B6C3F1/MALE, Route: ORAL, Dose: 0, 0.006, 0.012% OF DIET, Dose: 0, 0.006, 0.012% OF DIET): inactive; negative
- carcinogen call (Species: RAT, Strain/Sex: F344/FEMALE, Route: ORAL, Dose: 0, 0.006, 0.012% OF DIET, Dose: 0, 0.006, 0.012% OF DIET): inactive; negative
- carcinogen call (Species: RAT, Strain/Sex: F344/MALE, Route: ORAL, Dose: 0, 0.006, 0.012% OF DIET, Dose: 0, 0.006, 0.012% OF DIET): inactive; negative

SMILES: CC(=O)Nc1ccc(C(=O)CCl)cc1
- carcinogen call (Species: MOUSE, Strain/Sex: B6C3F1/FEMALE, Route: ORAL, Dose: 0, 5000, 10000 PPM IN DIET, Dose: 0, 5000, 10000 PPM IN DIET): inactive; negative
- carcinogen call (Species: MOUSE, Strain/Sex: B6C3F1/MALE, Route: ORAL, Dose: 0, 5000, 10000 PPM IN DIET, Dose: 0, 5000, 10000 PPM IN DIET): inactive; negative
- carcinogen call (Species: RAT, Strain/Sex: F344/FEMALE, Route: ORAL, Dose: 0, 1000, 2000 PPM IN DIET, Dose: 0, 1000, 2000 PPM IN DIET): inactive; negative
- carcinogen call (Species: RAT, Strain/Sex: F344/MALE, Route: ORAL, Dose: 0, 1000, 2000 PPM IN DIET, Dose: 0, 1000, 2000 PPM IN DIET): inactive; negative

SMILES: CCCCOC(=O)c1ccc(O)cc1
- carcinogen call (Species: MOUSE, Strain/Sex: ICR/FEMALE, Route: ORAL, Dose: 0, 0.15, 0.3, 0.6% IN DIET FOR 102 WK (STUDY DURATION: 106 WK), Dose: 0, 0.15, 0.3, 0.6% IN DIET FOR 102 WK (STUDY DURATION: 106 WK)): inactive; negative
- carcinogen call (Species: MOUSE, Strain/Sex: ICR/MALE, Route: ORAL, Dose: 0, O.15, 0.3, 0.6% IN DIET FOR 102 WK (STUDY DURATION: 106 WK), Dose: 0, O.15, 0.3, 0.6% IN DIET FOR 102 WK (STUDY DURATION: 106 WK)): inactive; negative

SMILES: O[C@H]1C=Cc2c(ccc3ncccc23)[C@@H]1O
- carcinogen call (Species: MOUSE, Strain/Sex: CD-1/FEMALE, Route: INTRAPERITONEAL, Dose: 0, 5, 10 AND 20 µL OF A 0.05 MOLAR SOLUTION ON DAYS 1, 8 AND 15 OF LIFE RESPECTIVELY (TOTAL DOSE: 1.75 UMOL) (STUDY DURA, Dose: 0, 5, 10 AND 20 µL OF A 0.05 MOLAR SOLUTION ON DAYS 1, 8 AND 15 OF LIFE RESPECTIVELY (TOTAL DOSE: 1.75 UMOL) (STUDY DURA): inactive; negative
- carcinogen call (Species: MOUSE, Strain/Sex: CD-1/MALE, Route: INTRAPERITONEAL, Dose: 0, 5, 10 AND 20 µL OF A 0.05 MOLAR SOLUTION ON DAYS 1, 8 AND 15 OF LIFE RESPECTIVELY (TOTAL DOSE: 1.75 UMOL) (STUDY DURA, Dose: 0, 5, 10 AND 20 µL OF A 0.05 MOLAR SOLUTION ON DAYS 1, 8 AND 15 OF LIFE RESPECTIVELY (TOTAL DOSE: 1.75 UMOL) (STUDY DURA): inactive; negative

SMILES: Cc1c2ccccc2c(C=O)c2ccc3ccccc3c12
- carcinogen call (Species: RAT, Strain/Sex: SPRAGUE-DAWLEY/FEMALE (13/GROUP), Route: SUBCUTANEOUS, Dose: 0.2 UMOL 3X A WK FOR 20 DOSES (STUDY DURATION: 52 WK), Tumor Site: Type of Lesion: MAMMARY: ADENOCARCINOMA): active; positive (15%)
- carcinogen call (Species: RAT, Strain/Sex: SPRAGUE-DAWLEY/FEMALE (13/GROUP), Route: SUBCUTANEOUS, Dose: 0.2 UMOL 3X A WK FOR 20 DOSES (STUDY DURATION: 52 WK), Tumor Site: Type of Lesion: SUBCUTANEOUS, SARCOMA): active; positive (85%)

SMILES: CCN(Cc1cccc(S(=O)(=O)[O-])c1)c1ccc(C(=C2C=CC(=[N+](C)C)C=C2)c2ccc(N(CC)Cc3cccc(S(=O)(=O)O)c3)cc2)cc1
- carcinogen call (Species: MOUSE, Strain/Sex: SWISS-WEBSTER/FEMALE, Route: DERMAL, Dose: 0, 1% IN 0.1 ML DISTILLED WATER 1/WK FOR 18 MO (STUDY DURATION: 18 MO)): inactive; negative
- carcinogen call (Species: MOUSE, Strain/Sex: SWISS-WEBSTER/MALE, Route: DERMAL, Dose: 0, 1% IN 0.1 ML DISTILLED WATER 1/WK FOR 18 MO (STUDY DURATION: 18 MO)): inactive; negative
- carcinogen call (Species: RAT, Route: ORAL, Tumor Site: Type of Lesion: MAMMARY GLAND, INTEGUMENTARY SYSTEM (SKIN)): active; positive
- carcinogen call (Species: RAT, Route: SUBCUTANEOUS, Tumor Site: Type of Lesion: INJECTION SITE): active; positive

SMILES: COCCN(N=O)C(N)=O
- carcinogen call (Species: RAT, Strain/Sex: F344/FEMALE, Route: INTRAVESICULAR, Dose: 0, 3.2 MG 2/WK FOR 17 WK (STUDY DURATION: LIFETIME), Tumor Site: Type of Lesion: BLADDER: TUMOR): active; positive

SMILES: CC(C)CCCCCCOC(=O)c1ccccc1C(=O)OCCCCCCC(C)C
- carcinogen call (Species: RAT, Strain/Sex: F344/FEMALE, Route: ORAL, Dose: 0, 0.03, 0.3, 0.6% IN DIET FOR DURATION OF STUDY (STUDY DURATION: 24 MO), Dose: 0, 0.03, 0.3, 0.6% IN DIET FOR DURATION OF STUDY (STUDY DURATION: 24 MO)): inactive; negative
- carcinogen call (Species: RAT, Strain/Sex: F344/MALE, Route: ORAL, Dose: 0, 0.03, 0.3, 0.6% IN DIET FOR DURATION OF STUDY (STUDY DURATION: 24 MO), Dose: 0, 0.03, 0.3, 0.6% IN DIET FOR DURATION OF STUDY (STUDY DURATION: 24 MO)): inactive; negative

SMILES: IC(I)I
- carcinogen call (Species: MOUSE, Strain/Sex: B6C3F1/FEMALE, Route: GAVAGE, Dose: 0, 47, 93 MG/KG, TWA, Dose: 0, 47, 93 MG/KG, TWA): inactive; negative
- carcinogen call (Species: MOUSE, Strain/Sex: B6C3F1/MALE, Route: GAVAGE, Dose: 0, 47, 93 MG/KG, TWA, Dose: 0, 47, 93 MG/KG, TWA): inactive; negative
- carcinogen call (Species: RAT, Strain/Sex: OSBORNE-MENDEL/FEMALE, Route: GAVAGE, Dose: 0, 27, 55 MG/KG, TWA, Dose: 0, 27, 55 MG/KG, TWA): inactive; negative
- carcinogen call (Species: RAT, Strain/Sex: OSBORNE-MENDEL/MALE, Route: GAVAGE, Dose: 0, 71, 142 MG/KG, TWA, Dose: 0, 71, 142 MG/KG, TWA): inactive; negative
